# According to patent US20060293264A1, “STAT3 decoy oligonucleotides and uses therefor” (priority 2004, published 2006):
# Assays:
# SCCHN cells = test: Incorporation of decoy into SCCHN cells, fluorescence labeled flow cytometry; format: cell-based; details: SCCHN cells in vitro, previously assessed
# [1] = test system: SCCHN xenografts (1483 cells); test: In vivo apoptosis determination by TUNEL in harvested xenografts; set-up: species or system athymic nude mice; details: xenografts harvested after 25 treatments; p=0.00038
# Method: In vivo apoptosis determinations. Detection and quantitation of apoptosis was performed by the TUNEL reaction, using the In Situ Cell Death Detection Kit, POD (Roche Diagnostics GmbH, Roche Applied Science, Sandhofer Strasse 116, D-68305 Mannheim, Germany). Cryostat sections were fixed in 4% paraformaldehyde in PBS for 30 min. After washing with PBS for 30 min, the sections were incubated in permeabilization solution (0.1% Triton X-100, 0.1% sodium citrate) for 2 min on ice. The sections were washed twice with PBS before the samples were incubated for 60 min at 37° C. with TUNEL reaction mixture to label DNA strand breaks with Fluorescein-dUTP. After washing three times with PBS, the samples were incubated with Converter-POD for 30 min at 37° C., washed again with PBS, and finally exposed to 0.025% 3,3′-diaminobenzidine (DAB)/0.01% H2O2 in Tris-HCl buffer (pH 7.4) for 10 min. The number of apoptotic cells per high-power field (HPF) was counted. For each treatment, five samples were evaluated, and 5-10 fields of view were quantified on each section.
# In vivo tumor xenograft studies. Female athymic nude mice nu/nu (4-6 weeks old; 20±2 g; Harlan-Sprague-Dawley) were implanted with 1×10^6 1483 cells into the right and left flank with a 26-gauge needle/1 ml tuberculin syringe, resulting in two tumors per mouse. […]
substance,measurement,setting,value
"STAT3 decoy (sense CATTTCCCGTAAATC; antisense GATTTACGGGAAATG; phosphorothioate modified, further chemistry not given here; listed as Homo sapiens)",cells in which decoy was detected,SCCHN cells,> 90%
same,increase in apoptosis (TUNEL) compared with mutant control decoy,[1],3.25 fold
